Reference: patent US9732072B2, “PRMT5 inhibitors and uses thereof” (Epizyme, Inc., priority 2012, dated 2017)

Molecular target: PRMT5/MEP50 (Homo sapiens (Human), UniProt O14744)
Assay: PRMT5 Biochemical Assay (PRMT5/MEP50 enzyme assay on peptide substrate, 3H-SAM Flashplate)
Conditions: PRMT5/MEP50 4 nM, 3H-SAM 75 nM, peptide 40 nM
From the text: S-adenosylmethionine (SAM), S-adenosylhomocysteine (SAH), bicine, KCl, Tween20, dimethylsulfoxide (DMSO), bovine skin gelatin (BSG), and Tris(2-carboxyethyl)phosphine hydrochloride solution (TCEP) were purchased from Sigma-Aldrich at the highest level of purity possible. ^3H-SAM was purchase from American Radiolabeled Chemicals with a specific activity of 80 Ci/mmol. 384-well streptavidin Flashplates were purchased from PerkinElmer.
Peptide representative of human histone H4 residues 1-15 was synthesized with a C-terminal linker-affinity tag motif and a C-terminal amide cap by 21st Century Biochemicals. The peptide was high high-performance liquid chromatography (HPLC) purified to greater than 95% purity and confirmed by liquid chromatography mass spectrometry (LC-MS). The sequence was Ac-[…][K-Biot]-amide (SEQ ID NO.:3).
Full-length human PRMT5 (NM_006109.3) transcript variant 1 clone was amplified from a fetal brain cDNA library, incorporating flanking 5′ sequence encoding a FLAG tag ([…]) (SEQ ID NO.:4) fused directly to Ala 2 of PRMT5. Full-length human MEP50 (NM_024102) clone was amplified from a human testis cDNA library incorporating a 5′ sequence encoding a 6-histidine tag (MHHHHHH) (SEQ ID NO.:5) fused directly to Arg 2 of MEP50. The amplified genes were sublconed into pENTR/D/TEV (Life Technologies) and subsequently transferred by Gateway™ attL×attR recombination to pDEST8 baculvirus expression vector (Life Technologies).
Recombinant baculovirus and Baculovirus-Infected Insect Cells (BIIC) were generated according to Bac-to-Bac kit instructions (Life Technologies) and Wasilko, 2006, respectively. Protein over-expression was accomplished by infecting exponentially growing Spodoptera frugiperda (SF9) cell culture at 1.2×10^6 cell/ml with a 5000 fold dilution of BIIC stock. Infections were carried out at 27° C. for 72 hours, harvested by centrifugation, and stored at −80° C. for purification.
Flag-PRMT5/6His-MeP50 was eluted with 300 mM Imidazole in the same buffer. The purity of recovered protein was 87%. Reference: Wasilko, D. J. and S. E. Lee: “TIPS: titerless infected-cells preservation and scale-up” Bioprocess J., 5 (2006), pp. 29-32.
General Procedure for PRMT5/MEP50 Enzyme Assays on Peptide Substrates.
The assays were all performed in a buffer consisting of 20 mM Bicine (pH=7.6), 1 mM TCEP, 0.005% BSG, and 0.002% Tween20, prepared on the day of use. Compounds in 100% DMSO (1 ul) were spotted into a polypropylene 384-well V-bottom plates (Greiner) using a Platemate Plus outfitted with a 384-channel head (Thermo Scientific). DMSO (1 ul) was added to Columns 11, 12, 23, 24, rows A-H for the maximum signal control and 1 ul of SAH, a known product and inhibitor of PRMT5/MEP50, was added to columns 11, 12, 23, 24, rows I-P for the minimum signal control. A cocktail (40 ul) containing the PRMT5/MEP50 enzyme and the peptide was added by Multidrop Combi (Thermo-Fisher). The compounds were allowed to incubate with PRMT5/MEP50 for 30 min at 25 degrees Celsius, then a cocktail (10 ul) containing ^3H-SAM was added to initiate the reaction (final volume=51 ul). The final concentrations of the components were as follows: PRMT5/MEP50 was 4 nM, ^3H-SAM was 75 nM, peptide was 40 nM, SAH in the minimum signal control wells was 100 uM, and the DMSO concentration was 1%. The assays were stopped by the addition of non-radioactive SAM (10 ul) to a final concentration of 600 uM, which dilutes the ^3H-SAM to a level where its incorporation into the peptide substrate is no longer detectable. 50 ul of the reaction in the 384-well polypropylene plate was then transferred to a 384-well Flashplate and the biotinylated peptides were allowed to bind to the streptavidin surface for at least 1 hour before being washed three times with 0.1% Tween20 in a Biotek ELx405 plate washer. […]

Chain of PRMT5/MEP50 (O14744 other isoform, or with tags, fused parts or gaps): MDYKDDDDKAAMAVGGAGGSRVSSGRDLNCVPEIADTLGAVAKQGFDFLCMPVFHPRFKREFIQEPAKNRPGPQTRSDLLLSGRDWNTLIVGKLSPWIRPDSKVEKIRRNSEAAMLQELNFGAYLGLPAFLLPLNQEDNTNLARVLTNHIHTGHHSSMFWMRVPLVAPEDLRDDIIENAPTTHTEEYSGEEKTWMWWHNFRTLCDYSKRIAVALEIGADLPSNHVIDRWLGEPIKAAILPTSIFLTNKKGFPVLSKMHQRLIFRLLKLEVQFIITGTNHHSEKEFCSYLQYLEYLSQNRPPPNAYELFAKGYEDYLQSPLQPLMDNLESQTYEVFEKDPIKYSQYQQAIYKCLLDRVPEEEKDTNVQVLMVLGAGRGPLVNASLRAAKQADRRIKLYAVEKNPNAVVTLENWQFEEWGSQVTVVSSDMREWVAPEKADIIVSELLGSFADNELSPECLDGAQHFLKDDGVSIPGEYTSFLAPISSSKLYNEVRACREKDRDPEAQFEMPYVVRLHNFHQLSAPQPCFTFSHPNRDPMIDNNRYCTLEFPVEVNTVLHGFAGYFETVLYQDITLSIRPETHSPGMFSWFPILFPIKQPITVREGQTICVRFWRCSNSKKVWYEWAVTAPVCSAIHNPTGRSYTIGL
Chain of PRMT5/MEP50 (Q9BQA1 other isoform, or with tags, fused parts or gaps partner): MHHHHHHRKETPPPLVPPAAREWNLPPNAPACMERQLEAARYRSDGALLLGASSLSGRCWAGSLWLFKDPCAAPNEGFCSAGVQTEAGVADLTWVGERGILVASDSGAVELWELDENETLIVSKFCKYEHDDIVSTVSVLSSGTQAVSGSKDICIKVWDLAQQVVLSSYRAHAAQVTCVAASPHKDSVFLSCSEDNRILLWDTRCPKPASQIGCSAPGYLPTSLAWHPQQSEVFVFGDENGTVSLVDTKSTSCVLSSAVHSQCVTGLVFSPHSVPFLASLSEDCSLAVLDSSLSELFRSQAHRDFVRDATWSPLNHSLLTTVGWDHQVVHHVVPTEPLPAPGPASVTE

Row | SMILES | IC50 [µM]
1 | C[C@H](Oc1cccc2cccnc12)C(=O)NC[C@H](O)CN1Cc2ccccc2C1 [Compound 1] | 1 to 10
2 | C[C@@H](Oc1cccc2cccnc12)C(=O)NC[C@@H](O)CN1Cc2ccccc2C1 [Compound 3, (R)—N—((R)-2-hydroxy-3-(isoindolin-2-yl)propyl)-2-(quinolin-8-yloxy)propanamide] | 1 to 10
3 | C[C@H](Oc1cccc2cccnc12)C(=O)NC[C@@H](O)CN1Cc2ccccc2C1 [Compound 6] | > 10
4 | CN1CCOc2cccc(OCC(=O)NCC(O)CN3Cc4ccccc4C3)c21 (stereo not shown) [Compound 10, N-(2-hydroxy-3-(isoindolin-2-yl)propyl)-2-((4-methyl-3,4-dihydro-2H-benzo[b][1,4]oxazin-5-yl)oxy)acetamide] | 0.101 to 1
5 | Cn1cnc2ccc(-c3cccc(OC[C@@H](O)CN4Cc5ccccc5C4)c3)cc21 [Compound 14] | 10 to 50
6 | Cn1cnc2ccc(-c3cccc(OC[C@H](O)CN4Cc5ccccc5C4)c3)cc21 [Compound 17, (R)-1-(isoindolin-2-yl)-3-(3-(1-methyl-1H-benzo[d]imidazol-6-yl)phenoxy)propan-2-ol] | 1 to 10
7 | CN(C)S(=O)(=O)c1ccccc1OCC(=O)NC[C@@H](O)CN1Cc2ccccc2C1 [Compound 21] | 0.101 to 1
8 | CN1CCOc2cccc(OCC(=O)NC[C@@H](O)CN3Cc4ccccc4C3)c21 [Compound 22] | 0.101 to 1
9 | CN(C)S(=O)(=O)c1ccccc1OCC(=O)NC[C@H](O)CN1Cc2ccccc2C1 [Compound 23] | < 0.1
10 | Cn1ncc2ccc(OCC(=O)NC[C@@H](O)CN3Cc4ccccc4C3)cc21 [Compound 25] | 10 to 50
11 | CN1CCOc2cccc(OCC(=O)NC[C@H](O)CN3Cc4ccccc4C3)c21 [Compound 26] | 0.101 to 1
12 | Cn1ncc2ccc(OCC(=O)NC[C@H](O)CN3Cc4ccccc4C3)cc21 [Compound 27] | 0.101 to 1
13 | O=C(NC[C@H](O)CN1Cc2ccccc2C1)c1ccnc(NC2CCOCC2)c1 [Compound 30] | < 0.1

Tested on: Symmetric Di-Methyl Arginine in Z-138 cells
Assay: Z-138 Methylation Assay (In Cell Western for symmetric di-methyl arginine)
Type: cell-based
Conditions: Homo sapiens, 96 hours incubation, read-out: ICW EC50
From the text: [formula] Where top and bottom are the normally allowed to float, but may be fixed at 100 or 0 respectively in a 3-parameter fit. The Hill Coefficient normally allowed to float but may also be fixed at 1 in a 3-parameter fit. Y is the % inhibition and X is the compound concentration. Z-138 Methylation Assay
Z-138 suspension cells were purchased from ATCC (American Type Culture Collection, Manassas, Va.). RPMI/Glutamax medium, penicillin-streptomycin, heat inactivated fetal bovine serum, and D-PBS were purchased from Life Technologies, Grand Island, N.Y., USA. Odyssey blocking buffer, 800CW goat anti-rabbit IgG (H+L) antibody, and Licor Odyssey infrared scanner were purchased from Licor Biosciences, Lincoln, Nebr., USA. Symmetric di-methyl arginine antibody was purchased from EMD Millipore, Billerica, Mass., USA. […]
First, the ratio for each well was determined by:
Each plate included fourteen control wells of DMSO only treatment (minimum inhibition) as well as fourteen control wells for maximum inhibition treated with 3 μM of a reference compound (Background wells). The average of the ratio values for each control type was calculated and used to determine the percent inhibition for each test well in the plate. […] Percent inhibition was determined and IC50 curves were generated using triplicate wells per concentration of compound. […]

Row | SMILES | EC50 [µM]
14 | O=C(NCC(O)CN1Cc2ccccc2C1)c1cccc(NC2CCOCC2)c1 (stereo not shown) [Compound 8] | 0.101 to 1
15 | CN1CCOc2cccc(OCC(=O)NCC(O)CN3Cc4ccccc4C3)c21 (stereo not shown) [Compound 10, N-(2-hydroxy-3-(isoindolin-2-yl)propyl)-2-((4-methyl-3,4-dihydro-2H-benzo[b][1,4]oxazin-5-yl)oxy)acetamide] | 0.101 to 1

Tested on: Z-138 cell line
Assay: Z-138 Proliferation Assay (Cell Titer Glo)
Type: cell-based
Conditions: Homo sapiens, 120 h; Z-138 cells, 5 days, top concentration 20 μM
From the text: [formula] Z-138 Proliferation Assay
Z-138 suspension cells were purchased from ATCC (American Type Culture Collection, Manassas, Va.). RPMI/Glutamax medium, penicillin-streptomycin, heat inactivated fetal bovine serum were purchased from Life Technologies, Grand Island, N.Y., USA. V-bottom polypropylene 384-well plates were purchased from Greiner Bio-One, Monroe, N.C., USA. Cell culture 384-well white opaque plates were purchased from Perkin Elmer, Waltham, Mass., USA. Cell-Titer Glo® was purchased from Promega Corporation, Madison, Wis., USA. SpectraMax M5 plate reader was purchased from Molecular Devices LLC, Sunnyvale, Calif., USA. […]
For the assessment of the effect of compounds on the proliferation of the Z-138 cell line, exponentially growing cells were plated in 384-well white opaque plates at a density of 10,000 cells/ml in a final volume of 50 μl of assay medium. […] Cell viability was measured by quantitation of ATP present in the cell cultures, adding 35 μl of Cell Titer Glo® reagent to the cell plates. Luminescence was read in the SpectraMax M5 microplate reader. The concentration of compound inhibiting cell viability by 50% was determined using a 4-parametric fit of the normalized dose response curves.

Row | SMILES | EC50 [µM]
16 | CN1CCOc2cccc(OCC(=O)NCC(O)CN3Cc4ccccc4C3)c21 (stereo not shown) [Compound 10, N-(2-hydroxy-3-(isoindolin-2-yl)propyl)-2-((4-methyl-3,4-dihydro-2H-benzo[b][1,4]oxazin-5-yl)oxy)acetamide] | > 20
